{"source": "patent US10238623B2", "about": "“C14-hydroxyl esterified amino acid derivative of triptolide, and preparation method and use thereof” (HANGZHOU WEBEN PHARMACEUTICALS INC, priority 2015, dated 2019)", "key": {"[1]": {"tested_on": "KG-1", "assay": "MTT growth inhibition, KG-1 cells, 72 h", "format": "cell-based", "details": "Homo sapiens, KG-1, MTT", "procedure": "(§1) 5000 well-grown leukemia cells were taken and seeded into wells of a 96-well cell culture plate. The medium was 1640 cell medium containing 10% fetal bovine serum. 14-D-Valine-TPL with different concentrations was added, and after being uniformly mixed, the plate was placed in a carbon dioxide (5% CO2) cell incubator, and incubated at 37° C. for 72 hours. The concentration of live cells was then determined using the MTT assay. In this experiment, the cell viability in the control group (without the compound treatment) was set to be 100%, and the cell viability (%) after the action of the compound and the half maximal growth inhibitory concentration of leukemia cells at 72 hours (IC50 value at 72 hours) were calculated."}, "[2]": {"tested_on": "normal human blood cells", "assay": "MTT assay, normal human blood cells, 72 h", "format": "cell-based", "details": "Normal Blood Cell", "procedure": "Leukemia cell strains: Sup-B15 (Ph+acute lymphoblastic leukemia), CEM (acute lymphoblastic leukemia, ALL), and Molt-4 (acute lymphoblastic leukemia, ALL). Normal blood cell samples: peripheral blood from healthy volunteers. • Primary reagent: 14-D-Valine-TPL of the invention. Primary instruments: cell incubator and microplate reader. (2) Experimental Method\n(§2) 5000 well-grown leukemia cells or normal human blood cells were taken and seeded into wells of a 96-well cell culture plate. The medium was 1640 cell medium containing 10% fetal bovine serum. 14-D-Valine-TPL with different concentrations was added, and after being uniformly mixed, the plate was placed in a carbon dioxide (5% CO2) cell incubator, and incubated at 37° C. for 72 hours. The concentration of live cells was then determined using the MTT assay. In this experiment, the cell viability in the control group (without the compound treatment) was set to be 100%, and the cell viability (%) after the action of the compound the half maximal growth inhibitory concentration of leukemia cells at 72 hours (IC50 value at 72 hours) and the therapeutic window index were calculated. Therapeutic window index=IC50 value of normal blood cells/IC50 value of leukemia cells. […] A larger therapeutic window indicates a better selectivity of the compound for tumor cells."}, "[3]": {"tested_on": "Molt-4", "assay": "MTT growth inhibition, Molt-4 cells, 72 h", "format": "cell-based, human", "details": "Homo sapiens, MOLT-4, 72 h", "procedure": "as §2, §1\nas §1, with “well-grown lymphocytes” for “well-grown leukemia cells”"}, "[4]": {"tested_on": "human leukemia cells (Jurkat, CEM, Molt-4, Sup-B15)", "assay": "Therapeutic window over 4 types of human leukemia cells (MTT)", "format": "cell-based", "details": "for 4 different types of human leukemia cells", "procedure": "as §2"}, "[5]": {"tested_on": "THP-1", "assay": "MTT growth inhibition, THP-1 cells, 72 h", "format": "cell-based", "details": "Homo sapiens, THP-1, MTT", "procedure": "as §1"}, "[6]": {"tested_on": "HL-60", "assay": "MTT growth inhibition, HL-60 cells, 72 h", "format": "cell-based", "details": "Homo sapiens, HL-60, MTT", "procedure": "as §1"}, "[7]": {"tested_on": "U937", "assay": "MTT growth inhibition, U937 cells, 72 h", "format": "cell-based", "details": "Homo sapiens, U-937", "procedure": "as §1"}, "[8]": {"tested_on": "human acute myelogenous leukemia KG-1a cells", "assay": "KG-1a subcutaneous xenograft in NOD/SCID mice", "format": "in vivo", "details": "for Tumor weight: KG-1a, individual mice, end of experiment", "procedure": "(§3) 7-week old female NOD/SCID mice were taken and inoculated subcutaneously with 1×10^7 cells (0.2 ml) per mouse in axilla, with human acute myelogenous leukemia KG-1a cells on the left and human acute monocytic leukemia THP-1 cells on the right. When tumors grew to a tumor size of around 0.5 cm, the mice were randomized into groups with 3 mice each. An equivalent amount of PBS was used for the control group, and the 14-D-Valine-TPL group was divided into two groups with 0.2 mg/kg body weight and 0.4 mg/kg body weight: intragastric administration 2 times a day (one at 8 a.m. and one at 4 p.m.) for consecutive 14 days of treatment. An observation was made for total 30 days, during which the conditions of the mice such as tumor size, weight, activity, diet, and the like were measured. At the end of the experiment, the mice were sacrificed, tumor tissues were taken and the tumors were weighed, and major organs and tissues of the mice such as liver, spleen, heart, lung, large intestine, small intestine, and the like were examined.\nas §3, with “the left.” for “the left and human acute monocytic leukemia THP-1 cells on the right.”, “around 50-100 mm^3,” for “around 0.5 cm,”, “the TPL-LLV” for “the 14-D-Valine-TPL”, “with 0.23” for “with 0.2”, “and 0.46” for “and 0.4”, “intragastric administration,” for “intragastric administration”\nas §3, with “the left.” for “the left and human acute monocytic leukemia THP-1 cells on the right.”, “around 50-100 mm^3,” for “around 0.5 cm,”, “the TPL-DLV” for “the 14-D-Valine-TPL”, “with 0.23” for “with 0.2”, “and 0.46” for “and 0.4”, “intragastric administration,” for “intragastric administration”\nas §3, with “the left.” for “the left and human acute monocytic leukemia THP-1 cells on the right.”, “around 50-100 mm^3,” for “around 0.5 cm,”, “the TPL-DLV” for “the 14-D-Valine-TPL”, “with 0.32” for “with 0.2”, “and 0.64” for “and 0.4”, “intragastric administration,” for “intragastric administration”"}}, "note": "Values joined by “and” are separate entries in the source; they are usually repeats but may differ in a detail not shown here. Equal entries are not always repeated.", "data": [{"smiles": "CC(C)[C@@H](N)C(=O)O[C@@H]1[C@@]2(C(C)C)O[C@H]2[C@@H]2O[C@]23[C@]12O[C@H]2C[C@H]1C2=C(CC[C@@]13C)C(=O)OC2", "note": "[14-D-Valine-TPL, 14-Dextro-Valine-Triptolide]", "values": [{"measurement": "IC50", "setting": "[1]", "result": 49, "unit": "nM"}, {"measurement": "IC50", "setting": "[2]; Homo sapiens, 72 h, Overall, MTT", "result": 201, "unit": "nM"}, {"measurement": "IC50", "setting": "[2]; Homo sapiens, 72 h, individual healthy volunteers No1-No9, MTT", "result": 203, "unit": "nM"}, {"measurement": "IC50", "setting": "[2]; individual healthy volunteers No1-No9, MTT", "result": "199 nM and 206 nM and 200 nM and 214 nM and 190 nM and 204 nM and 185 nM and 211 nM"}, {"measurement": "IC50", "setting": "[3]", "result": 10.8, "unit": "nM"}, {"measurement": "therapeutic window indices", "setting": "[4]", "result": "5.54-18.58"}, {"measurement": "IC50", "setting": "[5]", "result": 16, "unit": "nM"}, {"measurement": "IC50", "setting": "[6]", "result": 65.8, "unit": "nM"}, {"measurement": "IC50", "setting": "[7]", "result": 60, "unit": "nM"}, {"measurement": "growth of KG-1a in mice in vivo (in words)", "setting": "[8]; KG-1a xenograft, intragastric 2 times a day, 14 days, dose-dependent effect", "result": "significantly inhibit the growth"}, {"measurement": "Tumor weight", "setting": "[8]; trifluoroacetate 0.2 mg/kg intragastric 2 times a day, 14 days, listed as DV", "result": "0.42 g and 1.49 g and 0.06 g and 0.98 g and 0.2 g and 0.5 g"}, {"measurement": "Tumor weight", "setting": "[8]; trifluoroacetate 0.4 mg/kg intragastric 2 times a day, 14 days", "result": 0, "unit": "g"}, {"measurement": "regression of KG-1a xenograft tumors", "setting": "[8]; dose of 0.4 mg per kilogram of the body weight", "result": "complete regression"}]}]}
